Common to all, as to assay: inhibition of tumour cell growth, NCI panel, 48 h
Assay [1] relates to NCI-H226.
The test system of assay [2] is 786-0.
Assay [3] concerns HCT-116.
The subject of assay [4] is SK-OV-3.
Assay [5] deals with HCT-15.
Assay [6] relates to HT-29.
Assay [7] relates to HL-60.
For assay [8], the system named is RPMI-8226.
The test system of assay [9] is SW-620.
For assay [10], the system named is SN12C.
Assay [11] deals with UACC-257.
Assay [12] concerns A549.
The test system of assay [13] is EKVX.
The test system of assay [14] is IGROV-1.
In assay [15] the test system is MCF7.
Assay [16] relates to U-251.
Assay [17] concerns COLO 205.
Assay [18] deals with MDA-MB-435.
Assay [19] deals with OVCAR-4.
For assay [20], the system named is CCRF-CEM.

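Following 48 hours of exposure in 96-well plates, responses at five concentrations were used to interpolate endpoints linearly. GI50 marks 50% less growth.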 The source made the active and inactive calls. Rule as the data show it: active = GI50 up to about 1.1 µM and inactive = higher.

In the case of `CC1(C)CC2(C)OC(=N)C1(C#N)C2(C#N)C#N` (stereo not drawn), the GI50 in assay [1] is > 10 µM (inactive); in [2], 2.63 µM (inactive); in [3] it was 7.46 µM (inactive); in assay [4], 53.1 µM (inactive); in assay [5], 2.36 µM; in assay [6] it was 2.77 µM (inactive). In addition, the GI50 in [7] was 2.98 µM (inactive); in assay [8], 5.65 µM (inactive); in assay [9], 3.1 µM (inactive); in assay [10], 10.1 µM (inactive); in assay [11], 7.4 µM (inactive); in assay [12] it was 23.2 µM (inactive). Also, the GI50 in [13] is 5.02 µM (inactive); in [14], 15 µM (inactive); in [15], 8.55 µM (inactive); in assay [16], 13.6 µM (inactive); in assay [17], 2.56 µM (inactive); in [18], 11.9 µM (inactive).

For the compound `O=C(n1[nH]c(=O)n(-c2ccc([N+](=O)[O-])cc2)c1=O)C(Cl)(Cl)Cl`, the GI50 in assay [19] was > 75 µM (inactive); in assay [1], > 75 µM (inactive); in assay [2] it was > 75 µM (inactive); in assay [3] it was > 75 µM (inactive); in assay [4], > 75 µM (inactive); in [5], greater than 75 µM. Also, the GI50 in assay [6], in assay [7], in assay [8], in assay [9], in assay [10] and in assay [11] was > 75 µM (inactive) in each case. Also, the GI50 in assay [12], in [13], in assay [14], in assay [15], in assay [16] and in assay [17] was > 75 µM (inactive) each time. For the same compound, in assay [18], the GI50 was > 75 µM (inactive).

Turning to `O=C(O)C12C3CCC(CC3)C1(C(=O)O)C1CCC2C1` (stereo not drawn), the GI50 was > 100 µM (inactive) in [1]; > 100 µM (inactive) in assay [2]; > 100 µM (inactive) in assay [3]; > 100 µM (inactive) in [4]; greater than 100 µM in assay [5]; > 100 µM (inactive) in assay [20]. The GI50 in assay [6], in assay [7], in [8], in [9], in assay [10] and in assay [11] was > 100 µM (inactive) throughout. The GI50 in assay [12], in assay [14], in assay [15], in assay [16], in assay [17] and in assay [18] was > 100 µM (inactive) in each case.

Take `COc1ccc(-c2ccc(C(=O)C=P(c3ccccc3)(c3ccccc3)c3ccccc3)cc2)cc1`: the GI50 in assay [19] was 7.96 µM (inactive); in [1], 12.9 µM (inactive); in [2], 16.7 µM (inactive); in [3] it was 12.4 µM (inactive); in assay [4] it was 16.9 µM (inactive); in assay [5], 8.59 µM. Further, the GI50 in assay [20] was 5.52 µM (inactive); in assay [6] it was 6.05 µM (inactive); in [7], 3.94 µM (inactive); in assay [8], 2.12 µM (inactive); in assay [9], 14.6 µM (inactive); in assay [10], 14.9 µM (inactive). The GI50 is 17.7 µM (inactive) in assay [11]; 6.95 µM (inactive) in assay [12]; 6.59 µM (inactive) in assay [13]; 10.1 µM (inactive) in assay [15]; 13 µM (inactive) in [16]; 3.94 µM (inactive) in [17]. The GI50 in assay [18] was 12.2 µM (inactive).

As to `Cc1nn(C2OC(CO)C(O)C(F)C2O)c(=O)[nH]c1=O` (stereo not drawn), the GI50 in [19] was > 100 µM (inactive); in [1], > 100 µM (inactive); in assay [2], > 100 µM (inactive); in assay [3] it was > 100 µM (inactive); in assay [4], > 100 µM (inactive); in assay [5] it was greater than 100 µM. Further, the GI50 in [20], in [6], in assay [7], in [8], in [9] and in [10] was > 100 µM (inactive) each time. In addition, the GI50 in assay [11], in assay [12], in assay [15], in assay [16], in assay [17] and in [18] was > 100 µM (inactive) each time.

As to `CNc1ccc([S+]([O-])Nc2ccccc2)cc1` (stereo not drawn), the GI50 is 94.2 µM (inactive) in [19]; 21.2 µM (inactive) in assay [1]; 53.8 µM (inactive) in [2]; 40.2 µM (inactive) in [3]; 43.9 µM in assay [5]; > 100 µM (inactive) in [20]. The GI50 is 97.7 µM (inactive) in assay [6]; 26.1 µM (inactive) in assay [7]; 39.8 µM (inactive) in [8]; 70.8 µM (inactive) in [9]; > 100 µM (inactive) in assay [10]; 41.1 µM (inactive) in assay [11]. Moreover, the GI50 in assay [12] is 45.6 µM (inactive); in assay [13], 30.5 µM (inactive); in [14], 41.6 µM (inactive); in [15] it was 56 µM (inactive); in assay [16], 36.2 µM (inactive); in assay [17], 26.4 µM (inactive). Moreover, the GI50 in assay [18] is 34 µM (inactive).

Turning to `CCOC(=O)c1[nH]c2cccc3c2c1CC(Br)C3=O` (stereo not drawn), the GI50 in assay [1] was 17.4 µM (inactive); in [2], 4.72 µM (inactive); in assay [3] it was 2.48 µM (inactive); in assay [4], 22.7 µM (inactive); in [5], 3.72 µM; in [20], 3.83 µM (inactive). Also, the GI50 in [6] was 20 µM (inactive); in assay [7], 2.94 µM (inactive); in [8], 5.02 µM (inactive); in assay [9], 2.34 µM (inactive); in [10] it was 16.7 µM (inactive); in [11], 14.4 µM (inactive). The GI50 is 17.3 µM (inactive) in assay [12]; 17.5 µM (inactive) in [13]; 5.86 µM (inactive) in [14]; 22.5 µM (inactive) in assay [15]; 14.9 µM (inactive) in assay [16]; 14 µM (inactive) in [17]. The GI50 in [18] is 11.7 µM (inactive).

In the case of `C=C1C[C@@H](O)[C@@H](Br)C(C)(C)[C@]12CCC(C)(Cl)C(Br)C2` (stereo partly drawn), the GI50 in [19] is 21.9 µM (inactive); in assay [1], 20.9 µM (inactive); in assay [2], 25.9 µM (inactive); in assay [3], 32.3 µM (inactive); in assay [4], 57.3 µM (inactive); in [5], 35.1 µM. In addition, the GI50 is 41.6 µM (inactive) in assay [20]; 29 µM (inactive) in [6]; 25.6 µM (inactive) in [7]; 34 µM (inactive) in [8]; 39.9 µM (inactive) in assay [9]; 18.8 µM (inactive) in assay [10]. In addition, the GI50 in assay [11] was 21.6 µM (inactive); in assay [12], 26.2 µM (inactive); in [13] it was 4.35 µM (inactive); in assay [14], 7.93 µM (inactive); in assay [15] it was 25.1 µM (inactive); in [16], 24.4 µM (inactive). Also, the GI50 was 4.86 µM (inactive) in [17] and 23.9 µM (inactive) in assay [18].

With `O=C1c2ccccc2-c2[nH]c3cn[nH]c(=O)c3c21`, the GI50 was > 100 µM (inactive) in assay [19]; 78.7 µM (inactive) in assay [1]; > 100 µM (inactive) in assay [2]; 38.6 µM (inactive) in [3]; > 100 µM (inactive) in assay [4]; 82.6 µM in [5]. In addition, the GI50 in assay [20] is > 100 µM (inactive); in [6], > 100 µM (inactive); in assay [7] it was > 100 µM (inactive); in [8], 92.9 µM (inactive); in assay [9], > 100 µM (inactive); in [10] it was > 100 µM (inactive). Besides, the GI50 is > 100 µM (inactive) in [11]; > 100 µM (inactive) in assay [12]; 79.4 µM (inactive) in [13]; 23.1 µM (inactive) in assay [14]; 43.9 µM (inactive) in assay [15]; > 100 µM (inactive) in assay [16]. Moreover, the GI50 in assay [17] is 89.5 µM (inactive); in assay [18], 48.6 µM (inactive).

For the compound `CO/C=C(/C(=O)OC)c1ccccc1[C@H]1C[C@@H]1c1ccccc1`, the GI50 in [19] was 17.8 µM (inactive); in assay [1], 20.5 µM (inactive); in assay [2], 31.7 µM (inactive); in assay [3] it was 17.4 µM (inactive); in [4], 16.7 µM (inactive); in [5], 23.4 µM. The GI50 in assay [20] was 10.6 µM (inactive); in assay [6], 18.6 µM (inactive); in assay [7] it was 21.9 µM (inactive); in assay [8] it was 12.6 µM (inactive); in [10], 28.6 µM (inactive); in assay [11], 15.8 µM (inactive). The GI50 was 21.1 µM (inactive) in assay [12]; 15.4 µM (inactive) in [13]; 19.9 µM (inactive) in assay [14]; 29 µM (inactive) in assay [15]; 23.1 µM (inactive) in assay [16]; 14 µM (inactive) in [17]. The GI50 in assay [18] was 17.8 µM (inactive).

As to `C[n+]1c(-c2ccc(/C=N\NC(=O)c3ccc(C(=O)N/N=C/c4ccc(-c5cn6ccsc6[n+]5C)cc4)cc3)cc2)cn2ccsc21`, the GI50 is 28.8 µM (inactive) in assay [19]; 16.9 µM (inactive) in assay [1]; 16.6 µM (inactive) in [2]; 46.5 µM (inactive) in assay [4]; 16 µM in assay [5]; 25.4 µM (inactive) in assay [20]. Also, the GI50 is 15.8 µM (inactive) in [6]; 16.5 µM (inactive) in assay [7]; 14.2 µM (inactive) in assay [8]; 18.5 µM (inactive) in assay [9]; 19.4 µM (inactive) in assay [10]; 21.7 µM (inactive) in assay [11]. Further, the GI50 in assay [12] is 24.5 µM (inactive); in assay [13] it was 15.8 µM (inactive); in assay [14] it was 20 µM (inactive); in assay [15] it was 20.2 µM (inactive); in assay [16], 25.6 µM (inactive); in [17], 25 µM (inactive). Besides, the GI50 in assay [18] is 15.8 µM (inactive).

For the origin of these results see ChEMBL document CHEMBL1201862, “PubChem BioAssay data set” (2004).
